Data from ChEMBL document CHEMBL3988442, “University of Dundee, Small-Polar-MMV Screening Library” (2021).
Values joined by “and” are separate entries in the source; they are usually repeats but may differ in a detail not shown here. Equal entries are not always repeated.

Experiments:
Histidine--tRNA ligase = molecular target: T1, Histidine--tRNA ligase (Leishmania infantum, UniProt A4I591); experiment: Leishmania infantum Histidine tRNA synthetase (LdHisRS); assay type: functional
T1 sequence (A4I591 whole entry): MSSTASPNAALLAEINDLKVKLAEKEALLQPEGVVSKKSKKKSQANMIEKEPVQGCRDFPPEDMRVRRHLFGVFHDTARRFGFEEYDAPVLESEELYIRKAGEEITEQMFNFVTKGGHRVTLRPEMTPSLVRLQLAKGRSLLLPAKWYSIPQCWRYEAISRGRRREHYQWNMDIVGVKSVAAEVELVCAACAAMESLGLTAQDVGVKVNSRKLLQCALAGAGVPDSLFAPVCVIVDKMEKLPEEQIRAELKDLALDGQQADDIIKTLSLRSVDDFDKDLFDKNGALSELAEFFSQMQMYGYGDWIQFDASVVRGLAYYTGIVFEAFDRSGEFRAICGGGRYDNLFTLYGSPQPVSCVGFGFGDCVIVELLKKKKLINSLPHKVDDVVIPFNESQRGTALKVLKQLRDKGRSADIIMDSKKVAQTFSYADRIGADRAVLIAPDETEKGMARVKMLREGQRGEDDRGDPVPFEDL

ClpP1P2 = ClpP1P2 (Mycobacterium tuberculosis (strain ATCC 25618 / H37Rv), UniProt P9WPC3+P9WPC5); experiment: in vitro assay to detect presence of AMC directly proportional to the activity of ClpP1P2. GHDDI collaboration.; assay type: functional
[1] = microbe, parasite or virus in culture; details: Mycobacterium tuberculosis, 96 h, read-out: pIC50 (converted)
[2] = microbe, parasite or virus in culture; details: Mycobacterium tuberculosis, 72 h, read-out: pIC50 (converted)
[3] = In vitro enzyme assay to detect hydrolysis of chlorophenol red-beta-D-[…] directly proportional to the number of Toxoplasma stably expressing beta-galactosidase; assay type: functional, organism-based, Toxoplasma gondii; details: Toxoplasma gondii
Schistosoma mansoni = experiment: High throughput screening of compounds against Schistosoma mansoni motility; assay type: functional; parameters: dose or concentration left out as unconfirmed
Plasmodium falciparum = experiment: Calibr Malaria Delayed Death Assay SOP; assay type: functional, organism-based; details: for IC50: Plasmodium falciparum
Tryptophan--tRNA ligase = Tryptophan--tRNA ligase (Mycobacterium tuberculosis (strain ATCC 25618 / H37Rv), UniProt P9WFT3); experiment: Biochemical assay for Mt-TrpRS; assay type: functional

CCN1c2ccc(-c3cncn3CCCn3ccnc3C)cc2CC1C.Cl (stereo unspecified)
IC50 (Histidine--tRNA ligase): 39.6 µM and 37.5 µM
IC50 (ClpP1P2): > 100 µM
IC50 [1]: 46.6 µM
IC50 [2]: 42.9 µM

CCn1nc2c(cc1=O)CN(c1ncnc3ccsc13)CC2
IC50 [3]: 11.2 µM
IC50 (Histidine--tRNA ligase): 54.3 µM and 39.8 µM

Cc1cc(NC(=O)CN2CCc3nn(C)c(=O)cc3C2)on1
IC50 (Histidine--tRNA ligase): 71.2 µM and 54.8 µM
Percent Effect (Schistosoma mansoni): -32.24%

Cc1cccnc1[C@H](C)Nc1nc(-c2cccnc2)nc2c1CNC2
IC50 (Histidine--tRNA ligase): 36.4 µM and 22.4 µM
pIC50 (Plasmodium falciparum): 5.936
IC50 (Plasmodium falciparum): 0.951 µM

CN(C)c1nc2c(c(N3CCc4ccccc4C3)n1)CCNC2
IC50 (Histidine--tRNA ligase): 28.8 µM and 22.8 µM
IC50 [1]: > 50.1 µM
IC50 [2]: 31.3 µM

CCCC(O)CNc1cncc(Br)c1 (stereo unspecified)
IC50 (Tryptophan--tRNA ligase): > 195 µM
IC50 (Histidine--tRNA ligase): > 100 µM
IC50 [1]: 21.7 µM
IC50 [2]: > 50.1 µM

CC(C)c1nc(CC(=O)Nc2nc(CN3CCCCCC3)cs2)cs1
IC50 (Histidine--tRNA ligase): 39.8 µM and 33.5 µM
IC50 [1]: 21.2 µM
IC50 [2]: 23.2 µM

Cc1c(CN2CCOCC2)c(O)n(CCO)c(=O)c1C#N
IC50 (Tryptophan--tRNA ligase): > 195 µM
IC50 (Histidine--tRNA ligase): 35.3 µM and 35.6 µM

N#CCCSc1sc2c(O)cc(O)nc2c1C#N
IC50 (Tryptophan--tRNA ligase): > 195 µM
IC50 (Histidine--tRNA ligase): 18.7 µM and 27.5 µM

Cn1nc2c(cc1=O)CN(CCc1nc3ccccc3c(=O)[nH]1)CC2
IC50 (Histidine--tRNA ligase): 67.7 µM and 54.2 µM
Percent Effect (Schistosoma mansoni): -34.74%

O=C(Cn1c(-c2ccco2)cc2cccnc21)N1CCCC1
IC50 (Histidine--tRNA ligase): 21.5 µM and 27.9 µM
IC50 (ClpP1P2): > 100 µM

Cc1ccccc1N1CCN(c2nc(N(C)C)nc3c2CCNC3)CC1
IC50 (Histidine--tRNA ligase): 55.3 µM and 91.3 µM
IC50 [1]: 27 µM
IC50 [2]: 26 µM

Cc1nccn1CCCn1cncc1-c1ccc2c(c1)CCC(C)N2C (stereo unspecified)
IC50 (Histidine--tRNA ligase): 6.86 µM and 7.15 µM
IC50 (ClpP1P2): > 100 µM

COc1ccccc1C1(CNCc2cccc(O)c2)CCOCC1
IC50 (Histidine--tRNA ligase): 1.13 µM and 1.34 µM (2×) and 1.43 µM
pIC50 (Plasmodium falciparum): 6.352
IC50 (Plasmodium falciparum): 0.31 µM

COc1ccc(NC(=O)Cn2nc(C)c(C(C)=O)c2C)cc1
IC50 [3]: 3.61 µM
IC50 (Histidine--tRNA ligase): 17.2 µM and 14 µM
pIC50 (Plasmodium falciparum): 6.455
IC50 (Plasmodium falciparum): 0.421 µM
IC50 [1]: 19 µM
IC50 [2]: 22.1 µM

CCn1nc2c(cc1=O)CN(c1ncnc3sccc13)CC2
IC50 [3]: 15 µM
IC50 (Histidine--tRNA ligase): 15.5 µM and 11.5 µM

Brc1ccc(C2(CNCc3cc[nH]c3)CCOCC2)cc1
IC50 (Histidine--tRNA ligase): 39.5 µM and 23.5 µM
pIC50 (Plasmodium falciparum): 6.139
IC50 (Plasmodium falciparum): 0.542 µM

Cc1cnc2n(c1=O)CC(C(=O)Nc1cccc3cccnc13)CS2 (stereo unspecified)
IC50 (Histidine--tRNA ligase): 78.6 µM and 68.6 µM
Percent Effect (Schistosoma mansoni): -85.49%

Cn1cc(-c2c(C#N)c(N)nc3c2CCc2[nH]ccc2-3)cn1
IC50 (Histidine--tRNA ligase): 11.2 µM and 16.9 µM
IC50 (ClpP1P2): > 100 µM

COCC(O)CNc1cncc(Br)c1 (stereo unspecified)
IC50 (Tryptophan--tRNA ligase): > 195 µM
IC50 (Histidine--tRNA ligase): > 100 µM

Clc1cc(CN2CCCN3CCCC3C2)c2ncccc2c1 (stereo unspecified)
IC50 (Histidine--tRNA ligase): 26.6 µM and 21.9 µM
pIC50 (Plasmodium falciparum): 5.897
IC50 (Plasmodium falciparum): 1.3 µM
IC50 [1]: 12.2 µM
IC50 [2]: 8.48 µM

NC(=O)c1cnc2n1CCN(C(=O)c1ccc(Cn3cccc3)cc1)C2
IC50 (Histidine--tRNA ligase): 22.7 µM and 17.3 µM
IC50 (ClpP1P2): > 100 µM

CNc1cc2c(nn1)CCN(C(=O)c1coc(Br)c1)C2
IC50 (Histidine--tRNA ligase): 51.3 µM and 66.4 µM
IC50 (ClpP1P2): > 100 µM

CC(=O)c1c(C)nn(CC(=O)Nc2ccc(Br)cc2)c1C
IC50 [3]: 7.32 µM
IC50 (Histidine--tRNA ligase): 6.08 µM and 7.13 µM
IC50 [2]: 8.6 µM

c1cncc(-c2ccc3c(c2)CCC32CCN(Cc3nccs3)CC2)c1
IC50 (Histidine--tRNA ligase): 75.2 µM and 52.4 µM
IC50 [1]: 36.3 µM
IC50 [2]: 36.1 µM

c1ccc(-c2cc(CN3C[C@@H]4CC[C@H](C3)N(CC3CCC3)C4)on2)cc1
IC50 (Histidine--tRNA ligase): 32.5 µM and 36.9 µM
IC50 [1]: 13.3 µM
IC50 [2]: 8.42 µM

CCC1CN(CC(=O)NCCN2CCCCCC2)c2ccccc2S1 (stereo unspecified)
IC50 (Histidine--tRNA ligase): 39.1 µM and 39.7 µM
pIC50 (Plasmodium falciparum): 5.947
IC50 (Plasmodium falciparum): 1.33 µM
IC50 [1]: > 50.1 µM
IC50 [2]: 44.8 µM

Cc1nc(CN2CCc3nc(N4CCCC4)nc(NC(C)C)c3C2)cs1
IC50 (Histidine--tRNA ligase): 14.7 µM and 12.1 µM
IC50 [1]: 25.4 µM
IC50 [2]: 41.6 µM

O=C(c1cc(-c2ccco2)cs1)N1CCCC1
IC50 (Histidine--tRNA ligase): > 100 µM and 53 µM
IC50 [1]: 33 µM
IC50 [2]: 8 µM

O=C(Nc1nccs1)c1csc(NC2CCCC2)n1
IC50 [3]: 4.36 µM
IC50 (Histidine--tRNA ligase): 30.3 µM and 43.9 µM
IC50 [1]: 34.5 µM
IC50 [2]: 28.4 µM

Cn1nc2c(cc1=O)CN(CC(=O)Nc1cc(C(C)(C)C)no1)CC2
IC50 (Histidine--tRNA ligase): > 100 µM

CCS(=O)(=O)Nc1ccc2c(c1)C1(CCOCC1)CN2C
IC50 (Histidine--tRNA ligase): 13.4 µM and 11 µM

CN(C)CCn1c(=O)oc2ccc(NC(=O)N3CCCCCC3)cc21
IC50 (Histidine--tRNA ligase): > 100 µM

Cn1nccc1-c1ncc(-c2cc(C(=O)O)n(CC3CC3)c2)cn1
IC50 (Histidine--tRNA ligase): > 100 µM

COc1ccc(-c2noc(CN3CCc4cncnc4C3)n2)cc1
IC50 (Histidine--tRNA ligase): > 100 µM

Cn1cccc(NC(=O)NCCc2cccc(O)c2)c1=O
IC50 (Histidine--tRNA ligase): 15.5 µM and 13 µM

CCC(C#N)NC(=O)CCCOc1cccc(C(C)=O)c1 (stereo unspecified)
IC50 (Histidine--tRNA ligase): > 100 µM

O=C(O)C1c2nc[nH]c2CCN1CC(c1ccccc1)c1ccccc1 (stereo unspecified)
IC50 (Histidine--tRNA ligase): 6.21 µM and 7.09 µM

Cc1nnc(NCC(c2ccco2)N(C)C)c(C#N)c1C (stereo unspecified)
IC50 (Histidine--tRNA ligase): 24.8 µM and 24.1 µM
